For this assay, the target named is T1, β-catenin (Homo sapiens, UniProt P35222).
T1 sequence (P35222 1-781): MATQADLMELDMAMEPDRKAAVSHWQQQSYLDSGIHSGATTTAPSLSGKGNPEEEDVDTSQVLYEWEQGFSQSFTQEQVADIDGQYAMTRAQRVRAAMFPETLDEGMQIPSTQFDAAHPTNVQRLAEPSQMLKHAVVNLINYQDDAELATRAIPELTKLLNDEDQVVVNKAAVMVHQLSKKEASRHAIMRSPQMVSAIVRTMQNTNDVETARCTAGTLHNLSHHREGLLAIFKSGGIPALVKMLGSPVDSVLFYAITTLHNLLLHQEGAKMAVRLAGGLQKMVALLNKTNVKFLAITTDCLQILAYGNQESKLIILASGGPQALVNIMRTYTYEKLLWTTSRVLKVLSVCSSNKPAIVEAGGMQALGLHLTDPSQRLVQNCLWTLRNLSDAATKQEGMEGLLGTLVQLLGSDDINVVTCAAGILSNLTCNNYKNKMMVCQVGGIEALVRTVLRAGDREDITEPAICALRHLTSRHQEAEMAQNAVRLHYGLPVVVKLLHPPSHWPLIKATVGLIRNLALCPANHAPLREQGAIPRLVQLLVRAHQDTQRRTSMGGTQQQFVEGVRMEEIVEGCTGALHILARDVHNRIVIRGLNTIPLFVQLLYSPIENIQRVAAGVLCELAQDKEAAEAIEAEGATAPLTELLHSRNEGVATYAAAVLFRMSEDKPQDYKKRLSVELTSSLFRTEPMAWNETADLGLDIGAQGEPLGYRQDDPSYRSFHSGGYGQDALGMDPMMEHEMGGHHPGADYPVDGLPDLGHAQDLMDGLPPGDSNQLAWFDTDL
Nature of the assay: KD50 measurement using competitive fluorescence polarization (FP) with labelled TCF4. Type of assay: binding. The note with it: fluorescence polarization, β-catenin; for Kd: read-out: β-Cat FP KD. The gist of the method: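 Each compound competes against labelled TCF4 (5 nM) for 100 nM β-catenin at room temperature, tested over 10 nM to 30 uM. Signal: polarization at 470/520 nm excitation/emission. Three repeat experiments were performed.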
A general note: In fluorescence polarisation assays a small probe gives low polarisation when free and higher when bound to something large.

Where a SMILES comes first, the peptide text is derived from it. Where only a bound is given, the exact number is not on record here.

In general, Kd refers to the free concentration of one partner at which half of the binding sites on the other are occupied at equilibrium, for simple one-to-one binding. As to `CCCCCCCCCCCC(=O)N[C@@H](Cc1c[nH]c2ccccc12)C(=O)N(C)[C@@H](C)C(=O)N[C@@H](CCC(N)=O)C(=O)N[C@@H](CO)C(=O)N[C@H](C(=O)N[C@@H](CC(C)C)C(=O)N[C@@H](CC(=O)O)C(=O)N[C@H]1CCCCNC(=O)C[C@@H](C(=O)N[C@H](C(=O)N[C@@H](Cc2c[nH]c3ccccc23)C(N)=O)C(C)C)NC(=O)[C@H](CCC(N)=O)NC(=O)[C@H](C2CCCCC2)NC(=O)[C@H](Cc2c[nH]cn2)NC1=O)[C@@H](C)CC` [compound 461] (HELM PEPTIDE1{[CCCCCCCCCCCC(=O)[*:2]].W.[meA].Q.S.I.L.D.K.H.[O=C([C@@H](N[*:1])C1CCCCC1)[*:2]].Q.D.V.W.[am]}$PEPTIDE1,PEPTIDE1,9:R3-13:R3$$$V2.0), the Kd was under 400 nM.
For the compound `CC[C@H](C)[C@H](NC(=O)[C@H](CC(C)C)NC(=O)[C@@H](NC(=O)[C@H](Cc1c[nH]c2ccccc12)NC(=O)[C@H](CCSC)NC(C)=O)[C@@H](C)CC)C(=O)N[C@@H](CO)C(=O)N[C@@H](Cc1ccccc1)C(=O)N[C@@H](Cc1c[nH]c2ccccc12)C(=O)NCCCC(=O)O` [compound 240] (HELM PEPTIDE1{[ac].M.W.I.L.I.S.F.W.[O=C(O)CCCN[*:1]]}$$$$V2.0), the “β-Cat FP Hill slope” value turned out to be 1.44 and the Kd is under 400 nM.
For `CC[C@H](C)[C@@H]1NC(=O)[C@H](CC(C)C)NC(=O)[C@H](Cc2ccccc2)NC(=O)[C@H](Cc2c[nH]c3ccccc23)NC(=O)[C@@H](N)CCCCNC(=O)CCCCNC(=O)C[C@@H](C(=O)O)NC(=O)[C@H](Cc2c[nH]c3ccccc23)NC(=O)[C@H](C)NC(=O)[C@H](CS)NC1=O` [compound 248] (HELM PEPTIDE1{K.W.F.L.I.C.A.W.[O=C(O)[C@H](CC(=O)[*:2])N[*:1]].[O=C(CCCCN[*:1])[*:2]]}$PEPTIDE1,PEPTIDE1,1:R3-10:R2$$$V2.0), the Kd is over 30000 nM.
Turning to `CC[C@H](C)[C@@H]1NC(=O)[C@H](CC(C)C)NC(=O)[C@H](Cc2ccccc2)NC(=O)[C@H](Cc2c[nH]c3ccccc23)NC(=O)[C@@H](N)CCCCNC(=O)CC[C@@H](C(=O)N[C@@H](Cc2c[nH]c3ccccc23)C(=O)NCC(=O)O)NC(=O)[C@H](CO)NC1=O` [compound 228] (HELM PEPTIDE1{K.W.F.L.I.S.E.W.G}$PEPTIDE1,PEPTIDE1,1:R3-7:R3$$$V2.0), the “β-Cat FP Hill slope” value was 0.2 and the Kd is over 30000 nM.
The like results for `CC[C@H](C)[C@H](NC(=O)[C@H](CO)NC(=O)[C@H](CCC(N)=O)NC(=O)[C@H](C)N(C)C(=O)[C@H](Cc1c[nH]c2ccccc12)NC(C)=O)C(=O)N[C@@H](CC(C)C)C(=O)N[C@@H](CC(=O)O)C(=O)N[C@H]1CCC(=O)NCCCC[C@@H](C(=O)N[C@H](C(=O)N[C@@H](Cc2c[nH]c3ccccc23)C(=O)NCC(N)=O)C(C)C)NC(=O)[C@H](CCC(N)=O)NC(=O)[C@H](C2CCCCC2)NC(=O)[C@H](Cc2c[nH]cn2)NC1=O` [compound 470] (HELM PEPTIDE1{[ac].W.[meA].Q.S.I.L.D.E.H.[O=C([C@@H](N[*:1])C1CCCCC1)[*:2]].Q.K.V.W.G.[am]}$PEPTIDE1,PEPTIDE1,9:R3-13:R3$$$V2.0) were, in that order, 0.81 and under 400 nM.
As for `CC[C@H](C)[C@@H]1NC(=O)[C@@H](NC(=O)[C@H](CCC(N)=O)NC(=O)[C@@H]2CCCN2C(=O)[C@H](Cc2c[nH]c3ccccc23)NC(=O)[C@H](CCCNC(=N)N)NC(=O)[C@H](CCCNC(=N)N)NC(C)=O)CCCCNC(=O)CC[C@@H](C(=O)N[C@@H](Cc2c[nH]cn2)C(=O)N[C@H](C(=O)N[C@@H](CCCNC(=N)N)C(=O)N[C@@H](CCCNC(=N)N)C(=O)N[C@H](C(=O)N[C@@H](Cc2c[nH]c3ccccc23)C(=O)N[C@@H](CCCNC(=N)N)C(N)=O)C(C)C)C(C)C)NC(=O)[C@H](CC(=O)O)NC(=O)[C@H](CC(C)C)NC1=O` [compound 429] (HELM PEPTIDE1{[ac].R.R.W.P.Q.K.I.L.D.E.H.V.R.R.V.W.R.[am]}$PEPTIDE1,PEPTIDE1,7:R3-11:R3$$$V2.0), the “β-Cat FP Hill slope” value turned out to be 0.7 and the Kd fell in the range of 400 to 1000 nM.
As for `CC[C@H](C)[C@@H]1NC(=O)[C@H](CC(C)C)NC(=O)[C@H](Cc2ccccc2)NC(=O)[C@H](Cc2c[nH]c3ccccc23)NC(=O)[C@@H](N)CCCCNC(=O)CN(CC(=O)O)C(=O)[C@H](Cc2c[nH]c3ccccc23)NC(=O)[C@H](C)NC(=O)[C@H](CS)NC1=O` [compound 284], the “β-Cat FP Hill slope” value is given as 0.7.
In the case of `CC[C@H](C)[C@H](NC(=O)[C@H](CC(C)C)NC(=O)[C@H](Cc1ccccc1)NC(=O)[C@H](Cc1c[nH]c2ccccc12)NC(=O)[C@@H](N)CCSC)C(=O)N[C@@H](CO)C(=O)N[C@@H](Cc1ccccc1)C(=O)N[C@@H](Cc1c[nH]c2ccccc12)C(=O)N[C@@H](C)C(=O)O` [compound 7] (H-MWFLISFWA-OH), the “β-Cat FP Hill slope” value is 0.5 and the Kd fell in the range of 10000 to 30000 nM.
Taken in the same sequence, the figures for `CC[C@H](C)[C@@H]1NC(=O)[C@@H](NC(=O)[C@H](CCC(N)=O)NC(=O)[C@H](C)N(C)C(=O)[C@H](Cc2c[nH]c3ccccc23)NC(C)=O)CCCCNC(=O)CC[C@@H](C(=O)N[C@@H](Cc2c[nH]cn2)C(=O)N[C@H](C(=O)N[C@@H](CO)C(=O)N[C@@H](CCCNC(=N)N)C(=O)N[C@H](C(=O)N[C@@H](Cc2c[nH]c3ccccc23)C(=O)NCC(N)=O)C(C)C)C2CCCCC2)NC(=O)[C@H](CC(=O)O)NC(=O)[C@H](CC(C)C)NC1=O` [compound 416] (HELM PEPTIDE1{[ac].W.[meA].Q.K.I.L.D.E.H.[O=C([C@@H](N[*:1])C1CCCCC1)[*:2]].S.R.V.W.G.[am]}$PEPTIDE1,PEPTIDE1,5:R3-9:R3$$$V2.0) were 0.7 and under 400 nM.
Regarding `CC[C@H](C)[C@H](NC(=O)[C@H](CC(C)C)NC(=O)[C@@H](NC(=O)[C@@H](N)Cc1c[nH]c2ccccc12)[C@@H](C)CC)C(=O)N[C@@H](C)C(=O)N[C@@H](Cc1ccccc1)C(=O)N[C@@H](Cc1c[nH]c2ccccc12)C(=O)NCC(=O)O` [compound 265] (H-WILIAFWG-OH), the “β-Cat FP Hill slope” value worked out at 0.7 and the Kd lay in the range of 1000 to 10000 nM.
For the compound `CC[C@H](C)[C@@H]1NC(=O)[C@@H](NC(=O)[C@H](CCC(N)=O)NC(=O)[C@H](C)N(C)C(=O)[C@@H](N)Cc2c[nH]c3ccccc23)CCCCNC(=O)CC[C@@H](C(=O)N[C@@H](Cc2c[nH]cn2)C(=O)N[C@H](C(=O)N[C@@H](CO)C(=O)N[C@@H](CCCNC(=N)N)C(=O)N[C@H](C(=O)N[C@@H](Cc2c[nH]c3ccccc23)C(=O)NCC(N)=O)C(C)C)C2CCCCC2)NC(=O)[C@H](CC(=O)O)NC(=O)[C@H](CC(C)C)NC1=O` [compound 415] (HELM PEPTIDE1{W.[meA].Q.K.I.L.D.E.H.[O=C([C@@H](N[*:1])C1CCCCC1)[*:2]].S.R.V.W.G.[am]}$PEPTIDE1,PEPTIDE1,4:R3-8:R3$$$V2.0), the “β-Cat FP Hill slope” value is given as 0.7 and the Kd was under 400 nM.
On to `CCCCCCCCC(=O)N[C@@H](Cc1c[nH]c2ccccc12)C(=O)N(C)[C@@H](C)C(=O)N[C@@H](CCC(N)=O)C(=O)N[C@H]1CCC(=O)NCCCC[C@@H](C(=O)N[C@@H](Cc2c[nH]cn2)C(=O)N[C@H](C(=O)N[C@@H](CCC(N)=O)C(=O)N[C@@H](CCCNC(=N)N)C(=O)N[C@H](C(=O)N[C@@H](Cc2c[nH]c3ccccc23)C(=O)NCC(N)=O)C(C)C)C2CCCCC2)NC(=O)[C@H](CC(=O)O)NC(=O)[C@H](CC(C)C)NC(=O)[C@H]([C@@H](C)CC)NC1=O` [compound 427] (HELM PEPTIDE1{[CCCCCCCCC(=O)[*:2]].W.[meA].Q.E.I.L.D.K.H.[O=C([C@@H](N[*:1])C1CCCCC1)[*:2]].Q.R.V.W.G.[am]}$PEPTIDE1,PEPTIDE1,5:R3-9:R3$$$V2.0), for which the Kd was under 400 nM.
As for `CC[C@H](C)[C@H](NC(=O)[C@H](CC(C)C)NC(=O)[C@H](Cc1ccccc1)NC(C)=O)C(=O)N[C@@H](CO)C(=O)N[C@@H](Cc1ccccc1)C(=O)N[C@@H](Cc1c[nH]c2ccccc12)C(=O)NCC(=O)O` [compound 239] (Ac-FLISFWG-OH), the “β-Cat FP Hill slope” value amounted to 0.7 and the Kd was 1000 to 10000 nM.
Taken in the same sequence, the figures for `CC[C@H](C)[C@@H]1NC(=O)[C@@H](NC(=O)[C@H](CCC(N)=O)NC(=O)[C@H](C)N(C)C(=O)[C@H](Cc2c[nH]c3ccccc23)NC(=O)CCNC(C)=O)CCCCNC(=O)CC[C@@H](C(=O)N[C@@H](Cc2c[nH]cn2)C(=O)N[C@H](C(=O)N[C@@H](CCC(N)=O)C(=O)N[C@@H](CCCNC(=N)N)C(=O)N[C@H](C(=O)N[C@@H](Cc2c[nH]c3ccccc23)C(=O)NCC(N)=O)C(C)C)C2CCCCC2)NC(=O)[C@H](CC(=O)O)NC(=O)[C@H](CC(C)C)NC1=O` [compound 419] (HELM PEPTIDE1{[ac].[bAla].W.[meA].Q.K.I.L.D.E.H.[O=C([C@@H](N[*:1])C1CCCCC1)[*:2]].Q.R.V.W.G.[am]}$PEPTIDE1,PEPTIDE1,6:R3-10:R3$$$V2.0) were 0.7 and under 400 nM.
